Where a name gives a salt, the structure may show the parent alone.
Experiments:
isolated rat brain stem [1] = assay: Release of labelled transmitter from isolated rat brain stem to electrical stimulation
From the text: After a single washout the neurons work immediately on their normal activity level again. Since neurons respond to stimulation in an “all or none” manner, it is obvious that only a part of the neuronal population (the most excitable ones) respond to the electrical stimulation.
This measurement can be made, mutatis mutandis, analogously to the measurement described in example 2 of EP1052259B1 (corresponding to WO2000026204A1). The method is described in [Knoll J, Knoll B and Miklya I Life Sci, 58, 2101-2114 (1996)].
In short the brain stem (average weight about 800 mg) is isolated from rats and soaked in oxygenated Krebs' solution. Then solution of labelled neurotransmitter the release of which is measured is added to the preparation and allowed for uptake in an appropriate environment. If needed, MAO activity is inhibited.
After uptake of the monoamine the brain stem is fixed in appropriate organ bath and washed in appropriate solution facilitating uptake and preventing metabolization of the monoamine.
Fractionation of the perfusate is carried out periodically and, if the monoamine is radiolabelled, fractions are combined with a scintillation liquid.
The organ is perfused with the buffer containing the compound(s) of the invention for sufficient time before electrostimulation.
The brain stem is stimulated with rectangular pulses (e.g. 3 Hz, 1 ms 60 V) e.g. for 3 min. At the beginning of the experiment, the several, e.g. three resting periods of fraction were proceeded prior to the first stimulation. Thereafter it is allotted several, e.g. seven resting periods of fraction between stimulation.

[2] = system: catecholaminergic neurons in the brain stem; conditions: 1 mg/kg s.c.; cited from earlier work
[3] = system: male Wistar rats (Charles River); assay: Longevity study: survival of rats treated 3 times a week s.c.; format: in vivo, rat
Method: Experiments were carried out on male Wistar rats (Charles River) weighing 250-350 g received from the breeding colony of Semmelweis University. The animals were kept in a 12-hour light-dark cycle and under condition of controlled temperature (22±2° C.) and relative humidity (55±5%). Room temperature and relative humidity was checked daily. The rats were maintained on standard laboratory chow and tap water ad libitum. All procedures conformed to the European Convention for the protection of vertebrate animals used for experimental and other scientific purposes. The study was approved by the Animal Ethics Committee of Semmelweis University, Budapest (permission number: 1810/003/2004)
(§1) The longevity study was performed on 200 male rats received from the breeding colony of the Semmelweis University. The rats were born at the end of February of 2010. After 2-month acclimation period the rats were divided randomly into 5 even groups. The longevity study started at the beginning of May 2010. Animals were observed until their natural deaths. The data in this study represent the changes observed until Oct. 31, 2012, since in the saline-treated group the last animal died on Oct. 31, 2012. As will be shown later a few rats in the enhancer-treated groups were still alive on Nov. 1, 2012.
(§2) During the longevity study 5 rats were housed together in polycarbonate cages (height: 18 cm; wide: 42 cm; length: 44 cm) with a stainless steel on the top. Cage bedding was renewed 3 times a week (Monday, Wednesday and Friday). Bodyweight was measured once every month. The treatment started at the end of the second month of their age.
To avoid the mixing of the groups and individuals, saline-treated rats were signed blue from 1 to 40; D-treated rats were signed green from 1 to 80 (1-40: rats treated with 0.1 mg/kg and 41-80: rats treated with 0.001 mg/kg); B-treated rats were signed black from 1 to 80 (1-40: rats treated with 0.05 mg/kg and 41-80: rats treated with 0.0001 mg/kg).
(§3) Significance in the performance between the groups in the shuttle box was evaluated by multi-factor analysis of variance (ANOVA). Significance regarding the span of time from tumor manifestation until death in rats and regarding aging related changes in bodyweight treated chronically with the enhancer substances was analyzed by One-way ANOVA. Statistical analysis of survival rate and tumor manifestation was performed by the Kaplan-Meier method.

fibromyxosarcoma = assay: Longevity study: manifestation of subcutaneous fibromyxosarcoma (TMS effect); format: in vivo, rat; conditions: for tumor manifestation suppressing (TMS) effect versus saline: Kaplan-Meier
Method: as §1, §2
We carefully observed the appearance of the subcutaneous tumor and followed the development of the tumor until death. Histological analysis was performed post mortem on several rats taken from each group as examples.
The subcutaneous tumors developed in the rats were measured by the two largest diameters. After sacrificing the animals, the tumors were removed, photographs were taken. Tissues were fixed immediately after removal in 10% neutral formalin (in PBS, pH7.0) for 24 hours at room temperature, dehydrated and embedded in paraffin. 3-4 micrometer thick sections were cut and stained by hematoxylin and eosin (HE) as a routine.
as §3

[4] = system: catecholaminergic neurons; assay: Shuttle box: antagonism of tetrabenazine-induced learning deficit (conditioned avoidance reflex); format: in vivo, rat
Method: In a modified version of the shuttle box the acquisition of a two-way conditioned avoidance reflex (CAR) was analyzed during 5 consecutive days. The rat was put in a box divided inside into two parts by a barrier with a small gate in the middle, and the animal was trained to cross the barrier under the influence of a conditioned stimulus (CS, light flash). […] One trial consisted of 10 s intertrial interval, followed by 20 s CS. The last 5 s of CS overlaped the 5 s US. At each learning session, the number of CARs, EFs and intersignal reactions (IRs) are automatically counted and evaluated by multi-way ANOVA.
Tetrabenazine-treatment (1 mg/kg s.c.) depletes at least 90% of norepinephrine and dopamine from their stores in the nerve terminals of the catecholaminergic neurons in the brain stem. Due to the weak performance of the catecholaminergic brain engine, the activation of the cortical neurons remains below the level required for the acquisition of a CAR. The learning deficit caused by tetrabenazine-treatment can be antagonized by the administration of a synthetic CAE substance or an A-type MAO inhibitor, whereas selective inhibition of B-type MAO or inhibition of the reuptake of catecholamines and/or serotonin is ineffective (Knoll et al., 1992).

Daoy HTB-186 cell line = assay: MTT proliferation assay, Daoy medulloblastoma cells; format: cell-based, human; conditions: monotherapy, nine concentrations 10^-14 to 10^-6 M, 72 hours
Method: (§4) Human medulloblastoma cell line, Daoy was purchased from ATCCC, UW-228 was obtained from the courtesy of Professor Silber (Univerity of Washington, Seattle, Wash., USA).
(§5) Daoy and UW-228-2 cell lines were maintained in culture medium (each 500 ml Minimum Essential Medium Eagle, Alpha Modification (M8042, Sigma, St Louis, USA) with 50 ml FCS (Gibco), 40 mg Gentamicin (Sandoz), 5 ml sodium-pyruvate (S8636, Sigma, St Louis, USA), 5 ml non-essential-amino acid solution (M7145, Sigma, St Louis, USA), 10 ml L-glutamin (Sigma, St Louis, USA) at 37° C. in humified 5% CO2.
(§6) In each well 3×10^3 Daoy or UW-228-2 cells were seeded in 96-well plates (Sarstedt), solved in 100 μl of its own medium with 10% FCS. 24 hours after seeding, cells were treated for 72 hours by drugs solved in further 100 μl medium. First, both cell lines were treated by (−)-BPAP and (−)-deprenil in monotherapy to determine its dose-effect curves in concentration of 10^−6, 10^−7, 10^−8, 10^−9, […], 10^−11, 10^−12, 10^−13 and 10^−14 M. In combined treatment 10^−3, 3.3×10^−4, […] and 3.7×10^−5 M of temozolomide (Schering Plough, USA) or 0.04, 0.2, 1, 5 μM of Cisplatin (Ebewe Pharma, Austria) or 0.04, 0.2, 1, 5 μM of etoposide (Ebewe Pharma, Austria) or 10^−7, 10^−6, 10^−5 and 10^−4 μM (UW228-2) or 0.001, 0.005, 0.025 and 0.125 μM (Daoy) of Vincristin (Richter Gedeon, Hungary) were applied in monotherapy or combined with 10^−13 or 10^−8 M of (−)-BPAP or (−)-deprenil.
(§7) Cell proliferation was evaluated by MTT (3-(4,5-Dimethylthiazol-2-yl)-2,5-diphenyltetrazolium bromide) assay (M5655, Sigma) after 72-hour treatment by the method described in manufacturer's protocol.

UW-228-2 cell line = assay: MTT proliferation assay, UW-228-2 medulloblastoma cells; format: cell-based, human; conditions: UW-228-2, monotherapy, nine concentrations 10^-14 to 10^-6 M, 72 hours
Method: as §4, §5, §6, §7

lung carcinoma = assay: Longevity study on FVB/N mice: spontaneous lung carcinoma at autopsy; format: in vivo, mouse; conditions: 18-month
Method: Body weight is measured bimonthly.
For monitoring, we planned to sacrifice mice from each group at 6-month, 1-year, 1.5-year and 2-year time-points; the rest of the animals are kept until spontaneous death.
The results are shown in Table 4 and on FIGS. 19 and 20. Significance levels were calculated with two-sided Chi-square test.

isolated rat brain stem [5] = conditions: optimal concentration for the specific enhancer effect, 3-min collection period; review Knoll, 2005; cited from earlier work
[6] = system: Wistar-Logan strain of rats; conditions: cited from earlier work
[7] = shuttle box, 1 mg/kg tetrabenazine s.c.

C#CCN(C)CCCOc1ccc(Cl)cc1Cl [clorgyline]
release of [3H]-SER to electrical stimulation (isolated rat brain stem [1]; 250 ng/ml): None of these compounds enhanced the release

COc1cc2c(cc1OC)C1CC(=O)C(CC(C)C)CN1CC2 (centres unmarked) [Tetrabenazine, Tetrabenazine HCl]
depletion of norepinephrine and dopamine from their stores in the nerve terminals [2]: at least 90%

CNCCC(Oc1ccc(C(F)(F)F)cc1)c1ccccc1 (centres unmarked) [fluoxetine]
release of [3H]-SER to electrical stimulation (isolated rat brain stem [1]; 50 ng/ml): None of these compounds enhanced the release

C#CCN(C)[C@H](C)Cc1ccccc1 [(−)-Deprenyl, (R)—N-methyl-N-(1-phenylpropan-2-yl)prop-2-yn-1-amine, reference compound]
month of age in which the first animal died ([3]; 0.001 mg/kg s.c. 3 times a week, N=40): 13 month | rats remained alive to the end of the 32nd month ([3]; 0.001 mg/kg, N=40): none | month of age in which the first animal died ([3]; 0.1 mg/kg s.c. 3 times a week, N=40): 11 month | lifespan compared with saline-treated peers ([3]; both doses of the longevity study (FIGS. 5-8)): did not prolong the lifespan of rats significantly | tumor manifestation suppressing (TMS) effect versus saline (fibromyxosarcoma; 0.001 mg/kg): not significant | month of age in which the first animal manifested the tumor (fibromyxosarcoma; 0.001 mg/kg, N=40): 12 month | rats in the group manifested the tumor to the end of the 32nd month (fibromyxosarcoma; 0.001 mg/kg, N=40): 15 rats | tumor manifestation suppressing (TMS) effect versus saline (fibromyxosarcoma; 0.1 mg/kg, P<0.01, listed as (−)-deprenyl): significantly decreased | tumor manifestation suppressing (TMS) effect versus saline (fibromyxosarcoma; 0.1 mg/kg, P<0.01, listed as Deprenyl): suppressed the manifestation of the fibromyxosarcoma significantly | month of age in which the first animal manifested the tumor (fibromyxosarcoma; 0.1 mg/kg, N=40): 16 month | rats in the group manifested the tumor to the end of the 32nd month (fibromyxosarcoma; 0.1 mg/kg, N=40): 11 rats | rats manifested the tumor when the group completed the 30th month of life (fibromyxosarcoma; 0.1 mg/kg, N=40): 11 rats | span of time from tumor manifestation until death (fibromyxosarcoma; chronic treatment, versus saline (FIG. 13), One-way ANOVA): no significant difference | dose-effect-relation of the enhancer effect ([4]; shuttle box (FIG. 3)): bi-modal, bell-shaped | optimal dose that exerted the specific enhancer effect [4, 7]: 0.001 mg/kg | very high dose range effective in antagonizing the tetrabenazine-induced learning deficit (MAO-A inhibition) [4, 7]: 5 to 10 mg/kg | proliferation of cultured medulloblastoma cells (Daoy HTB-186 cell line; listed as (−)-deprenyl): did not inhibit the proliferation | proliferation of cultured medulloblastoma cells (Daoy HTB-186 cell line; listed as Deprenyl): none of the applied concentrations did Deprenyl or BPAP influence the proliferation | proliferation of cultured medulloblastoma cells (UW-228-2 cell line; listed as (−)-deprenyl): did not inhibit the proliferation | proliferation of cultured medulloblastoma cells (UW-228-2 cell line; listed as Deprenyl): none of the applied concentrations did Deprenyl or BPAP influence the proliferation | Number of detected lung carcinoma (lung carcinoma; 0.001 mg/kg daily, 2 dissected mice): 0 | Number of detected lung carcinoma (lung carcinoma; 0.1 mg/kg daily, 4 dissected mice): 1 | released amount of labeled transmitter ([3H]-norepinephrine, [3H]-dopamine or [3H]-serotonin) (isolated rat brain stem [5]): significantly higher | rats that lived longer than the maximum lifespan ever observed in the strain ([6]; HP rats, out of 50): 17 rats | lifespan versus saline treated peers ([6]; sexually lowest performing (LP) rats, n=49): lived significantly longer than their saline treated peers

NCCNC(=O)c1ccc(Cl)cn1 [lazabemide]
release of [3H]-SER to electrical stimulation (isolated rat brain stem [1]; 250 ng/ml): None of these compounds enhanced the release

— patent publication US10258599B2, “Compounds for use in the prevention or treatment of cancer” (SEMMELWEIS UNIVERSITY, priority 2014, dated 2019)
